“Also recorded” adds a separate entry of the source. Read-outs that look alike come from different tables or passages of the source. Marks after values point to notes of the source that are not given here.
How the values were obtained:
[1] = tested on: human growth hormone receptor mRNA; experiment: Inhibition of human growth hormone receptor mRNA levels by antisense oligonucleotides, quantitative real-time PCR, MCF7 cells; type: cell-based; parameters: concentration or dose not given beside the values; conditions: averages from three experiments
IGF-I = experiment: Phase I trial: pharmacodynamic effect on serum IGF-I levels; type: in vivo, human; conditions: for Serum IGF-I change from pre-dose, Mean ± SD / Serum IGF-I % change from pre-dose: n=6
Excerpt: A secondary objective of this study was to obtain data on the pharmacodynamic effects of ATL1103 on the IGF-I levels in the blood of the trial subjects. Reduction of increased levels of serum IGF-I to normal is the therapeutic endpoint in the treatment of the growth disorder acromegaly, and reducing the effects of IGF-I has a potential role in the treatment of diabetic retinopathy, nephropathy and certain forms of cancer.
(§1) As defined in the statistical analysis plan, the effect of ATL1103 on serum IGF-I was assessed as a change in IGF-I levels versus baseline (starting point) readings for those subjects who received treatment (ATL1103). Pre-dose baseline levels of IGF-I were recorded prior to the commencement of dosing and then measured at weekly intervals until the end of the monitoring period. […] Other exploratory objectives of the study investigated the drug's mechanism of action and broader pharmacological profile, including the pharmacodynamic effects on levels of growth hormone binding protein (GHBP), insulin-like growth factor binding protein 3 (IGFBP-3), acid labile subunit of the insulin-like growth factor binding protein complex (ALS), and growth hormone (GH), as well as in vitro mitogenic and apoptotic parameters.

[2] = tested on: growth hormone binding protein (GHBP); experiment: Phase I trial: exploratory PD, circulating GHBP; type: in vivo, human; conditions: for GHBP % change from pre-dose / GHBP mean change from pre-dose: Stage B, n=6
Description: as §1

[3] = tested on: insulin-like growth factor binding protein 3 (IGF-BP3); experiment: Phase I trial: exploratory PD, IGF-BP3; type: in vivo, human; conditions: for IGF-BP3 % change from pre-dose / IGF-BP3 mean change from pre-dose: Stage B, n=6
Description: as §1

[4] = tested on: insulin-like growth factor II (IGF-II); experiment: Phase I trial: exploratory PD, IGF-II; type: in vivo, human; conditions: Stage B, n=6
[5] = tested on: insulin-like growth factor acid-labile subunit (ALS); experiment: Phase I trial: exploratory PD, ALS; type: in vivo, human; conditions: for ALS % change from pre-dose / ALS mean change from pre-dose: Stage B, n=6
Description: as §1

growth hormone (GH) = experiment: Phase I trial: exploratory PD, growth hormone levels; type: in vivo, human; conditions: listed as ATL1103
Description: as §1

liver GHr RNA = experiment: Monotherapy and combination mouse study: relative liver GHR RNA; type: in vivo, mice; conditions: week 3, p=0.001
Excerpt: (§2) The GHr and IGF-I RNA data were statistically analysed using one-way ANOVA followed by Dunnetts test when comparing treated to saline control. The sIGF-I data were statistically analyzed using one-way […] comparisons.

liver IGF-I RNA = experiment: Monotherapy and combination mouse study: relative liver IGF-I RNA; type: in vivo, mice; conditions: week 3, p=0.001
Excerpt: as §2

serum IGF-I = experiment: Monotherapy and combination mouse study: serum IGF-I; type: in vivo, mice
Excerpt: as §2

[6] = tested on: serum insulin like growth factor I (IGF-I); experiment: Phase II trial in patients with acromegaly: serum IGF-I reduction; type: in vivo, human
Description: The primary endpoints or main purposes of the trial were (i) to evaluate the safety and tolerability of ATL1103 in patients with acromegaly, and (ii) to evaluate the single dose and multiple dose pharmacokinetic profiles of ATL1103 via the subcutaneous route in patients with acromegaly.

[7] = human, in vivo
Description: (§3) The primary objective of the Phase I trial was to assess the safety, tolerability and pharmacokinetics (pK) of ATL1103.
(§4) The Phase I trial was a randomized, placebo controlled, double blind study of single ascending doses and multiple doses of ATL1103 in healthy adult male subjects aged between 18 and 45 years. In the single ascending dose stage of the trial, 24 subjects were administered four dose levels of ATL1103 as a single injection starting at 25 mg and escalating to 75, 250 and 400 mg or placebo. The multiple dose stage was undertaken in 12 subjects, 8 who were to receive six subcutaneous doses of 250 mg of ATL1103 and 4 subjects who received placebo administered on days 1, 3, 5, 7, 14 and 21. Subjects were monitored out to day 35.

[8] = human, in vivo, sc
Description: The Phase I trial was a randomized, placebo controlled, double blind study of single ascending doses and multiple doses of ATL1103 in healthy adult male subjects aged between 18 and 45 years. […] Subjects were monitored out to day 35.

[9] = Phase I trial: safety and tolerability of subcutaneous ATL1103 in healthy adult male subjects
Description: as §3, §4

[10] = ATL1103 12 mg/kg, 3 times in first week then 2 times weekly
[11] = ATL1103 25 mg/kg, 2 times weekly, compared to saline control

tcagggcattctttccattc (TCAGGGCATTCTTTCCATTC; chemistry not given here) [ISIS 227452]
% INHIB (inhibitory effect on hGHR mRNA levels) [1]: 79%
Serum IGF-I change from pre-dose, Mean ± SD (IGF-I; Stage B, 250 mg multiple dose, Day 3): +2.65 ± 9.47 nmol/L
trend of serum IGF-I levels versus baseline (IGF-I; Stage B, from day 14 on, listed as ATL1103): trend in reduction in IGF-I levels from day 14 to day 28; also recorded: For IGF-I there was a clear trend for mean levels to be lower than baseline on days D14, 21, 28, 35 of
Serum IGF-I % change from pre-dose (IGF-I; Stage B, Day 3): 12%
Serum IGF-I % change from pre-dose (IGF-I; Stage B, Day 5): 6%
Serum IGF-I change from pre-dose, Mean ± SD (IGF-I; Stage B, Day 5): +0.32 ± 7.42 nmol/L
Serum IGF-I % change from pre-dose (IGF-I; Stage B, Day 7): 6%
Serum IGF-I change from pre-dose, Mean ± SD (IGF-I; Stage B, Day 7): +0.77 ± 7.51 nmol/L
Serum IGF-I % change from pre-dose (IGF-I; Stage B, Day 14): −2%
Serum IGF-I change from pre-dose, Mean ± SD (IGF-I; Stage B, Day 14): -1.43 ± 7.19 nmol/L
Serum IGF-I % change from pre-dose (IGF-I; Stage B, Day 21): −7%
Serum IGF-I change from pre-dose, Mean ± SD (IGF-I; Stage B, Day 21): -3.40 ± 3.59 nmol/L
Serum IGF-I % change from pre-dose (IGF-I; Stage B, Day 28): −7%
Serum IGF-I change from pre-dose, Mean ± SD (IGF-I; Stage B, Day 28): -3.43 ± 7.53 nmol/L
Serum IGF-I % change from pre-dose (IGF-I; Stage B, Day 35): −1%
Serum IGF-I change from pre-dose, Mean ± SD (IGF-I; Stage B, Day 35): -1.9 ± 5.08 nmol/L
reduction in mean IGF-I levels versus baseline (IGF-I; day 21, p=0.034 one sided t-test): 7%
GHBP % change from pre-dose ([2]; Day 7): (0%)
GHBP mean change from pre-dose ([2]; Day 7): -31.2 pmol/L
GHBP % change from pre-dose ([2]; Day 21): (−16%)
GHBP mean change from pre-dose ([2]; Day 21): −169.5** pmol/L
GHBP % change from pre-dose ([2]; Day 28): (−19%)
GHBP mean change from pre-dose ([2]; Day 28): −233.3* pmol/L
reduction of GHBP ([2]; day 21, p=0.007): 16%
reduction of GHBP ([2]; day 28, one week past the last dose, p<0.05): 19%
effect on IGFBP-3 ([3]; Phase I multiple dose stage): significantly reduced
IGF-BP3 % change from pre-dose ([3]; Day 7): (−10%)
IGF-BP3 mean change from pre-dose ([3]; Day 7): −310.5** ng/ml
IGF-BP3 % change from pre-dose ([3]; Day 21): (−8%)
IGF-BP3 mean change from pre-dose ([3]; Day 21): −228.3* ng/ml
IGF-BP3 % change from pre-dose ([3]; Day 28): (−5%)
IGF-BP3 mean change from pre-dose ([3]; Day 28): -160.5 ng/mL
IGF-II % change from pre-dose ([4]; Day 7): (−14%)
IGF-II mean change from pre-dose ([4]; Day 7): −101.8*** ng/ml
IGF-II % change from pre-dose ([4]; Day 21): (−8%)
IGF-II mean change from pre-dose ([4]; Day 21): -57.5 ng/mL
IGF-II % change from pre-dose ([4]; Day 28): (−5%)
IGF-II mean change from pre-dose ([4]; Day 28): -29.2 ng/mL
effect on ALS ([5]; Phase I multiple dose stage): significantly reduced
ALS % change from pre-dose ([5]; Day 7): (−5%)
ALS mean change from pre-dose ([5]; Day 7): −115.3 mU/ml
ALS % change from pre-dose ([5]; Day 21): (−9%)
ALS mean change from pre-dose ([5]; Day 21): −160.7 mU/ml
ALS % change from pre-dose ([5]; Day 28): (−10%)
ALS mean change from pre-dose ([5]; Day 28): −188.7* mU/ml
effect on GH levels (growth hormone (GH)): no effect; also recorded: No treatment-related effects were apparent in growth hormone levels (data not shown)
reduction of liver GHr RNA (liver GHr RNA; [10]): 99%
reduction of liver GHr RNA (liver GHr RNA; [11]): 99.7%
reduction of liver IGF-I RNA (liver IGF-I RNA; [10]): 64.3%
reduction of liver IGF-I RNA (liver IGF-I RNA; [11]): 76.2%
reduction of sIGF-I (serum IGF-I; ATL1103 25 mg/kg 2 times weekly monotherapy, week 1, compared to baseline control levels, p<0.013): 25%
reduction of sIGF-I (serum IGF-I; ATL1103 25 mg/kg, 2 times weekly, week 1, compared to control saline, p=0.0070): 36.5%
reduction of sIGF-I (serum IGF-I; ATL1103 25 mg/kg, 2 times weekly, week 2, compared to control saline, p=0.004): 41.5%
reduction of serum IGF-I (serum IGF-I; ATL1103 25 mg/kg, 2 times weekly, week 3, compared to saline control, p=0.003): 44.5%
reduction in mean sIGF-I levels ([6]; 200 mg per week dose, week 14): no consistent reduction
mean reduction in sIGF-I compared to baseline ([6]; 400 mg per week (twice weekly 200 mg), 4 patients with acromegaly, week 14): 30%
mean reduction in sIGF-I compared to baseline ([6]; 400 mg per week, 3 patients with lower body weights (58-83 kg, below 85 kg), approx. 4.8-6.9 mg/kg, week 14): 38%
range of sIGF-I reduction ([6]; 400 mg per week, 3 patients with lower body weights, week 14): 28-48%
time course of sIGF-I (FIG. 1) ([6]; twice weekly 200 mg (400 mg per week), over the dosing period): progressive rate of reduction
injection site reactions, number of events [7]: adverse events were injection site reactions (13).
number of treatment-emergent adverse events (TEAE) [7]: There were 24 treatment-emergent adverse events (TEAE) in Stage A (19 in the 16 ATL1103-treated
overall safety and tolerability [7]: ATL1103 was considered safe and generally well tolerated at the doses used in the study
pain at injection site, number of events [7]: treated subjects most common adverse events reported were pain at injection site (6), headache
severity of TEAE [7]: subjects, 5 in the 8 placebo-treated subjects), all reported as mild or moderate. In the ATL1103-
severity of all adverse events [7]: mild to moderate
AUClast ([8]; 25 mg): 3711 ± 822 ng·h/mL
Cmax ([8]; 25 mg): 466 ± 136 ng/mL
Tmax ([8]; 25 mg): 3.25 ± 0.5 h
AUClast ([8]; 75 mg): 21342 ± 4755 ng·h/mL
Cmax ([8]; 75 mg): 3139 ± 1576 ng/mL
Tmax ([8]; 75 mg): 3.25 ± 0.96 h
AUClast ([8]; 250 mg): 88942 ± 11295 ng·h/mL
Cmax ([8]; 250 mg): 12383 ± 3000 ng/mL
Tmax ([8]; 250 mg): 2.5 ± 1.29 h
AUClast ([8]; 400 mg): 151123 ± 29434 ng·h/mL
Cmax ([8]; 400 mg): 14343 ± 2823 ng/mL
Tmax ([8]; 400 mg): 3.25 ± 0.96 h
headache, number of events ([9]; Stage A, ATL1103-treated subjects): 5
influenza-like illness, number of events ([9]; Stage A, ATL1103-treated subjects (after single doses of 400 mg)): 2
influenza-like illness ([9]; after repeated doses of 250 mg): single doses of 400 mg ATL1103, this was not seen after repeated doses of 250 mg.

Reference: patent US20160129089A1, “COMBINATION THERAPY” (ANTISENSE THERAPEUTICS LTD, priority 2013, published 2016)
